Patent US20100240065A1, “Prolyl Hydroxylase Compositions and Methods of Use Thereof” (Boehringer Ingelheim International GmbH, priority 2009, published 2010)
Like-named read-outs stand apart in the source and are kept apart here. Values belong to the compound of their own block, whether it stands above or below them.

How the values were obtained:
[1] = target: T1, rhesus HPH3 (Macaca mulatta, UniProt H9FPE4); test: HPH enzyme TR-FRET assay (VBC-recognition of hydroxylated HIF peptide), HPH3; assay type: biochemical; settings: inhibitory activity against rhesus HPH3
T1 construct: fused on or other part: C-terminal GST tag used for purification and removed with thrombin before the assay

[2] = target: rhesus HPH1 (Macaca mulatta, UniProt I2CX88); test: biochemical
rhesus HPH1, sequence (I2CX88 1-426): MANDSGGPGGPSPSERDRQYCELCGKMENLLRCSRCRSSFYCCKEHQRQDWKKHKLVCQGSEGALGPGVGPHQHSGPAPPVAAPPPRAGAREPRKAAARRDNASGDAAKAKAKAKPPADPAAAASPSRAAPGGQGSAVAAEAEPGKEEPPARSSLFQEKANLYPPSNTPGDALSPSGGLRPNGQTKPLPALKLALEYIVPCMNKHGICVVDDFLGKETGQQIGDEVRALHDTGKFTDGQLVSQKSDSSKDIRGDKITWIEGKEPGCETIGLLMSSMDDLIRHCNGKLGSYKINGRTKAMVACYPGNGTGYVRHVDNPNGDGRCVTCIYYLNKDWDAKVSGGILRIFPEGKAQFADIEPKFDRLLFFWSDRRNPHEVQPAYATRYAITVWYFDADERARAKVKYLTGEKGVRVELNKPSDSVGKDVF
Procedure: (§1) The VBC protein complex was generated by co-expression of Glutathione S-Transferase-VHL (von Hippel Lindau), elongin B and elongin C in Escherichia coli followed by purification of the complex using glutathione affinity resin and size-exclusion chromatography. The HPH enzyme assay is conducted in the well of a 96- or 384-well plate. […] The time-resolved fluorescent signal (excitation at 330 nm; emission at 620 and 665 nm) is read on a plate reader after 1 h of incubation. The ratio of signal at 665 nm to 620 nm is used to calculate the amount of peptide interaction with GST-VBC as a measure of protein hydroxylation.
(§2) The activity of the HPH proteins was measured using an assay dependent upon VBC-recognition of a hydroxylated peptide. The VBC protein complex was generated by co-expression of Glutathione S-Transferase-VHL (von Hippel Lindau), elongin B and elongin C in Escherichia coli followed by purification of the complex using glutathione affinity resin and size-exclusion chromatography. The HPH enzyme assay is conducted in the well of a 96- or 384-well plate. […] The ratio of signal at 665 nm to 620 nm is used to calculate the amount of peptide interaction with GST-VBC as a measure of protein hydroxylation.

[3] = target: rhesus HPH2 (Macaca mulatta, UniProt I2CX88); settings: read-out: IC50 HPH2; inhibitory activity against rhesus HPH2
rhesus HPH2, sequence (I2CX88 1-426): as above
Procedure: as §1, §2

[4] = test system: recombinant rhesus HPH protein; test: HPH enzyme activity assay, effect of cofactors and metal ions (isoform not given); assay type: biochemical, rhesus (Macaca mulatta)

SMILES: NNc1nncc2ccccc12 [Hydralazine]
- IC50 [1]: 54 µM
- IC50 [2]: 400 µM

SMILES: O=C(O)CCC(=O)O [Succinate]
- IC50 [1]: 80 µM
- IC50 ([2]; read-out: IC50 HPH1, inhibitory activity against rhesus HPH1): 200 µM
- IC50 [3]: 380 µM

SMILES: [Cl-].[Cl-].[Co+2] [CoCl2]
- effect of addition on enzyme activity [4]: inhibited enzyme activity

- IC50 [1]: 0.66 µM
SMILES: O=C(O)CNC(=O)C(=O)O [N-oxalylglycine]

SMILES: [Fe+2] [ferrous iron]
- effect of addition on enzyme activity ([4]; recombinant rhesus HPH, isoform not stated): increased the activity of the enzyme
